Series [1] deals with Mus musculus. In words: Antidepressant activity in Swiss mouse assessed as reduction of immobility time at 0.5 mg/kg, ip after 30 mins by forced swimming test relative to vehicle-treated control. In kind it is functional. More on the design: scale not given: the % may be the effect or the level left. The settings on record: route intraperitoneal.
For series [2], the system named is Mus musculus. In words: Antidepressant activity in Swiss mouse assessed as reduction of immobility time at 1 mg/kg, ip after 30 mins by forced swimming test relative to vehicle-treated control. The conditions noted are these: route intraperitoneal. More on the design: scale not given: the % may be the effect or the level left. In kind it is functional.
Series [3] deals with Mus musculus. In words: Antidepressant activity in Swiss mouse assessed as reduction of immobility time at 0.5 mg/kg, ip by tail suspension test relative to vehicle-treated control. Type of series: functional. Also noted: scale not given: the % may be the effect or the level left. The conditions noted are these: route intraperitoneal.
The species entered for series [4] is Mus musculus. In words: Toxicity in Swiss mouse assessed as effect on neuro-muscular coordination after 30 to 180 mins by rotarod test. Type of series: organism-based. The settings on record: in vivo.
Series [5] has as its system Mus musculus. In words: Toxicity in Swiss mouse assessed as horizontal activity count at 0.5 mg/kg, ip after 30 mins measured for 120 mins by open field locomotor activity test. Also noted: dose 0.5 mg/kg, route intraperitoneal. The conditions noted are these: in vivo. In kind it is organism-based.
Series [6] concerns Mus musculus. In words: Antidepressant activity in Swiss mouse assessed as reduction of immobility time at 0.25 mg/kg, ip after 30 mins by forced swimming test relative to vehicle-treated control. Also noted: scale not given: the % may be the effect or the level left. The settings on record: route intraperitoneal. In kind it is functional.
Series [7] concerns Mus musculus. In words: Toxicity in Swiss mouse assessed as total distance travelled at 0.5 mg/kg, ip after 30 mins measured for 120 mins by open field locomotor activity test. Also noted: dose 0.5 mg/kg, route intraperitoneal. The conditions noted are these: in vivo, 2 h. In kind it is organism-based.
Series [8] in a line: Cmax in Swiss albino mouse at 1 mg/kg, iv. More on the design: dose 1 mg/kg, route intravenous. The settings on record: in vivo. In kind it is ADME, organism-based.
Series [9] is described as follows: Clearance in Swiss albino mouse at 1 mg/kg, iv. In kind it is ADME, organism-based. More on the design: dose 1 mg/kg, route intravenous. The conditions noted are these: in vivo.
A short description of series [10]: Cmax in Swiss albino mouse at 10 mg/kg, ip. The conditions noted are these: in vivo. Also noted: dose 10 mg/kg, route intraperitoneal. In kind it is ADME, organism-based.
The nature of series [11]: Clearance in Swiss albino mouse at 10 mg/kg, ip. In kind it is ADME, organism-based. More on the design: dose 10 mg/kg, route intraperitoneal. The conditions noted are these: in vivo.
Series [12] can be described thus: AUC (0 to infinity) in Swiss albino mouse at 1 mg/kg, iv. In kind it is ADME, organism-based. More on the design: time infinity, dose 1 mg/kg, route intravenous. The settings on record: plasma.
Series [13] in a line: Terminal half life in Swiss albino mouse at 1 mg/kg, iv. In kind it is ADME, organism-based. More on the design: dose 1 mg/kg, route intravenous. The settings on record: in vivo, read-out: beta t1/2 (converted).
A short description of series [14]: Tmax in Swiss albino mouse at 10 mg/kg, ip. Type of series: ADME, organism-based. Also noted: dose 10 mg/kg, route intraperitoneal. The settings on record: in vivo.
The nature of series [15]: AUC (0 to infinity) in Swiss albino mouse at 10 mg/kg, ip. In kind it is ADME, organism-based. Also noted: time infinity, dose 10 mg/kg, route intraperitoneal. The conditions noted are these: plasma.
The subject of series [16] is Mus musculus. The experiment in a line: Volume of distribution in Swiss albino mouse at 10 mg/kg, ip. Type of series: ADME, organism-based. More on the design: dose 10 mg/kg, route intraperitoneal. The settings on record: in vivo.
Series [17] is described as follows: Terminal half life in Swiss albino mouse at 10 mg/kg, ip. Type of series: ADME, organism-based. More on the design: dose 10 mg/kg, route intraperitoneal. The settings on record: in vivo, read-out: beta t1/2 (converted).
The nature of series [18]: Volume of distribution in Swiss albino mouse at 1 mg/kg, iv. In kind it is ADME, organism-based. Also noted: dose 1 mg/kg, route intravenous. The settings on record: in vivo.
Series [19] can be described thus: Bioavailability in Swiss albino mouse at 10 mg/kg, ip. The settings on record: in vivo, intraperitoneal.
A short description of series [20]: Oral bioavailability in rat. Type of series: ADME, organism-based. The conditions noted are these: in vivo.

Structures are written as SMILES.

We go through six compounds from ChEMBL document CHEMBL3351433, “Synthesis and evaluation of new 3-phenylcoumarin derivatives as potential antidepressant agents” (Bioorg Med Chem Lett, 2014).

A word on the Cmax: it is the highest concentration seen after dosing. In general, clearance refers to the rate of elimination divided by the concentration. By CL/F is commonly meant the apparent clearance, not corrected for the fraction that reaches the circulation. What is called AUC(0-inf) is the area under the concentration-time curve extrapolated to infinity. Usually Tmax stands for the time at which the peak concentration occurs. Usually bioavailability stands for dose-corrected exposure relative to a reference, in per cent.

Turning to `COc1ccc(-c2cc3cc(CO)cc(C(C)(C)C)c3oc2=O)cc1OC`, the Activity with Mus musculus [1] is given as 58%.

Turning to `COc1ccc(-c2cc3cc(CBr)cc(C)c3oc2=O)cc1OC`, the Activity in the series on Mus musculus [1] turned out to be 61%.

`COc1cc(-c2cc3cc(CBr)cc(C)c3oc2=O)cc(OC)c1OC`: the Activity with Mus musculus [2] is 71%; with Mus musculus [3] it was 49%; in the series filed under Mus musculus [4] it was “Non-toxic”; in the series with Mus musculus [1], 73%; in the series with Mus musculus [5], “Non-toxic”; in the series on Mus musculus [6], 16%. In addition, in the series with Mus musculus [7], the Activity result is given as “Non-toxic”.

In the case of `COc1ccc(-c2cc3cc(CBr)cc(C(C)(C)C)c3oc2=O)cc1OC`, the Activity in the series with Mus musculus [1] is reported as 55%.

For the compound `COc1ccc(-c2cc3cc(CNc4ccc(C)cc4)cc(C)c3oc2=O)cc1`, the Activity in the series on Mus musculus [2] was 75%; in the series on Mus musculus [3], 53%; in the series listed under Mus musculus [4], “Non-toxic”; in the series on Mus musculus [1], 80%; in the series on Mus musculus [5], “Non-toxic”; in the series with Mus musculus [6], 17%. Also, the Activity result in the series on Mus musculus [7] is “Non-toxic”. The Cmax in [8] was 105 ng/mL; in series [10], 256 ng/mL. For the same compound, in [9], the clearance was 67.3 mL/min/kg. Moreover, in series [11], the CL/F is 47.2 mL/min/kg. Besides, the AUC(0-inf) in series [12] was 316 ng·h/mL; in [15], 2330 ng·h/mL. The half-life is 3.21 h in series [13] and 7.57 h in series [17]. Moreover, the Tmax in series [14] came out at 2 h. Besides, the Vd came out at 30.45 L/kg in the series on Mus musculus [16] and 18 L/kg in series [18]. The same compound yielded a bioavailability in [19] of 73.4%.

Take `CNCCC(Oc1ccc(C(F)(F)F)cc1)c1ccccc1` (stereo not given) [FLUOXETINE]: the bioavailability in series [20] came out at 60%.
